Experimental data taken from patent publication US9526737B2, “Oxysterols for activation of hedgehog signaling, osteoinduction, antiadipogenesis, and Wnt signaling” (THE REGENTS OF THE UNIVERSITY OF CALIFORNIA, priority 2007, dated 2016).

Tests used:
Type in all cases: cell-based
[1] = tested on: TCF/Lef transcriptional activity (Cyclin D1 promoter element); experiment: Cyclin D1 promoter element luciferase reporter assay (Cyclin D1-luc); conditions: M2 cells, 24 hours; 5 μM SS or 40 mM LiCl
Experimental: (§1) M2-10B4 cells at 70% confluence were transfected for 24 hours using FuGENE 6 Transfection Reagent (Roche Applied Science, Indianapolis, Ind.) according to manufacturer's instructions. The wild-type and mutant TCF/LEF binding site driven luciferase constructs (TBE4-luc and TBE4-luc-mut, repectively) were generous gifts from Dr. Baruch Frenkel (University of Southern California, Los Angeles, Calif.), and the Cyclin D1 promoter element-driven luciferase construct (Cyclin D1-luc) was a generous gift from Dr. Fanxin Long (Washington University, St. Louis, Mo.). Firefly luciferase values were normalized to Renilla luciferase activity and pEGFP-NI was used to evaluate transfection efficiency. Cells were then treated for 24, 48, or 72 hours with test agents before measuring luciferase activity using the Dual-Luciferase Reporter 1000 Assay System (Promega, Madison, Wis.) according to the manufacturer's instructions.
M2 cells were transfected with a luciferase reporter driven by a Cyclin D1 promoter element (Cyclin D1-luc) and analyzed for their response to 5 μM SS, 40 mM LiCl, or control vehicle after 24 h of treatment (see FIG. 3B).

[2] = tested on: Cyclin D1 mRNA expression; experiment: Q-RT-PCR for Cyclin D1 mRNA expression; conditions: M2 cells
Experimental: (§2) Total RNA was extracted with the RNA isolation kit from Stratagene (La Jolla, Calif.) according to the manufacturer's instructions. RNA was DNase-treated using the DNA-free kit from Ambion, Inc. (Austin, Tex.). 3 μg of RNA was reverse-transcribed using reverse transcriptase from Stratagene (La Jolla, Calif.) to make single stranded cDNA. The cDNAs were mixed with Qi SYBR Green Supermix from Bio-Rad Laboratories (Hercules, Calif.) for quantitative RT-PCR using a Bio-Rad I-cycler IQ quantitative thermocycler. All PCR samples were prepared in triplicate or quadruplicate. Each sample was added to duplicate wells of a 96-well plate. After 40 cycles of PCR, melt curves were analyzed in order to ensure primer specificity, and the identity of all PCR products were verified by sequencing and comparing with the complete mRNA sequence obtained from PubMed's GenBank. Fold changes in gene expression were calculated using the ΔΔCt method (14). All primers were designed using the Beacon Designer software from Bio-Rad Laboratories (Hercules, Calif.). […]
M2 cells were treated with 5 μM SS, 200 ng/ml Shh, or control vehicle for 8 or 48 h. RNA was isolated and analyzed by Q-RT-PCR for Cyclin D1 expression (See FIGS. 4C and 4D).

[3] = tested on: TCF/Lef transcriptional activity; experiment: TCF/Lef luciferase reporter assay (TBE4-luc); conditions: M2 cells, 24 hours; 5 μM SS, 200 ng/ml Shh or 40 mM LiCl
Experimental: as §1
M2 cells were transfected with a luciferase reporter driven by 4 wild-type or mutant TCF/Lef DNA binding sites (TBE4-luc and TBE4-luc-mut, respectively) and analyzed for their response to 5 μM SS, 200 ng/ml Shh, 40 mM LiCl, or control vehicle after 24 h of treatment (see FIG. 3A).

Axin2 mRNA expression = experiment: Q-RT-PCR for Axin2 mRNA expression; conditions: M2 cells, 8 and 48 hours; 5 μM SS, 200 ng/ml Shh, 40 mM LiCl
Experimental: as §2
M2 cells were treated with 5 μM SS, 200 ng/ml Shh, 40 mM LiCl, or control vehicle for 8 or 48 h. RNA was isolated and analyzed by Q-RT-PCR for Axing expression (See FIGS. 4A and 4B).

## [Cl-].[Li+] [LiCl, lithium chloride]
[1]
  Cyclin D1 promoter element TCF/Lef reporter activity: activated
[2]; 8 hours
  Cyclin D1 mRNA expression: did not induce
[2]; 48 hours
  Cyclin D1 mRNA expression: inhibited its baseline expression
[3]
  TCF/Lef reporter activity compared to untreated control cells: significantly induced
Axin2 mRNA expression
  Axin2 mRNA expression: induced its expression at both time points
